Results on 24 molecules are retold here after patent US9783532B2, “Molecules having certain pesticidal utilities, and intermediates, compositions, and processes related thereto” (Dow AgroSciences LLC, priority 2013, dated 2017).

Assay [1] relates to Beet Armyworm (Spodoptera exigua) ("BAW"). As to the kind of experiment: Bioassay on beet armyworm (BAW), 128-well diet tray assay. Type of assay: in vivo. Conditions: Table ABC (PC), activity rating class, read-out: BAW (Biological Results, Insect species). The procedure, abridged:
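Percent mortality, averaged across eight wells, was read after five to seven days at 25° C. under 14:10 light-dark. Each well held one to five second-instar larvae on artificial diet that had been treated with 50 μg/cm^2 compound in 90:10 acetone-water and dried.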

The test system of assay [2] is Cabbage Looper (Trichoplusia ni) ("CL"). As to the kind of experiment: Bioassay on cabbage looper (CL), 128-well diet tray assay. It is filed as in vivo. Conditions: Table ABC (PC), activity rating class, read-out: CL (Biological Results, Insect species). The procedure, abridged: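 Percent mortality, averaged across eight replicate wells, was read after five to seven days at 25 °C under a 14:10 photoperiod. Each well held one to five second-instar T. ni on diet carrying a dried 50 μg/cm^2 dose applied in acetone-water 90:10.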

Regarding `Cc1ccccc1NC(=S)NC(=O)NCCc1cccc(-c2ncn(-c3ccc(OC(F)(F)F)cc3)n2)c1` [PC74, 1-(o-tolylcarbamothioyl)-3-[2-[3-[1-[4-(trifluoromethoxy)phenyl]-1H-1,2,4-triazol-3-yl]phenyl]ethyl]urea], the pest or weed control at 50 µg/cm2 in assay [1] and in assay [2] was 50 to 100% each time.
Turning to `CCc1cccc(C)c1NC(=S)NC(=O)NCCc1cccc(-c2ncn(-c3ccc(OC(F)(F)F)cc3)n2)c1` [PC83, 1-[(2-ethyl-6-methyl-phenyl)carbamothioyl]-3-[2-[3-[1-[4-(trifluoromethoxy)phenyl]-1H-1,2,4-triazol-3-yl]phenyl]ethyl]urea], the pest or weed control at 50 µg/cm2 in assay [1] and in assay [2] was 50 to 100% in each case.
In the case of `Cc1ccccc1NC(=S)NC(=O)NCCCc1ccc(-c2ncn(-c3ccc(OC(F)(F)F)cc3)n2)cc1` [PC92, 1-(o-tolylcarbamothioyl)-3-[3-[4-[1-[4-(trifluoromethoxy)phenyl]-1H-1,2,4-triazol-3-yl]phenyl]propyl]urea], the pest or weed control at 50 µg/cm2 in assay [1] and in assay [2] was 50 to 100% in each case.
Turning to `CCc1ccccc1NC(=S)NC(=O)NCCCc1ccc(-c2ncn(-c3ccc(OC(F)(F)F)cc3)n2)cc1` [PC93, 1-[(2-ethylphenyl)carbamothioyl]-3-[3-[4-[1-[4-(trifluoromethoxy)phenyl]-1H-1,2,4-triazol-3-yl]phenyl]propyl]urea], the pest or weed control at 50 µg/cm2 in assay [1] and in assay [2] was 50 to 100% in each case.
With `CC(C)c1ccccc1NC(=S)NC(=O)NCCCc1ccc(-c2ncn(-c3ccc(OC(F)(F)F)cc3)n2)cc1` [PC94, 1-[(2-isopropylphenyl)carbamothioyl]-3-[3-[4-[1-[4-(trifluoromethoxy)phenyl]-1H-1,2,4-triazol-3-yl]phenyl]propyl]urea], the pest or weed control at 50 µg/cm2 in assay [1] and in assay [2] was 50 to 100% throughout.
Turning to `CCc1cccc(C)c1NC(=S)NC(=O)NCCCc1ccc(-c2ncn(-c3ccc(OC(F)(F)F)cc3)n2)cc1` [PC101, 1-[(2-ethyl-6-methyl-phenyl)carbamothioyl]-3-[3-[4-[1-[4-(trifluoromethoxy)phenyl]-1H-1,2,4-triazol-3-yl]phenyl]propyl]urea], the pest or weed control at 50 µg/cm2 in assay [1] and in assay [2] was 50 to 100% in each case.
On to `CCc1ccccc1NC(=S)NC(=O)NCCCc1cccc(-c2ncn(-c3ccc(OC(F)(F)F)cc3)n2)c1` [PC119, 1-[(2-ethylphenyl)carbamothioyl]-3-[3-[3-[1-[4-(trifluoromethoxy)phenyl]-1H-1,2,4-triazol-3-yl]phenyl]propyl]urea], for which the pest or weed control at 50 µg/cm2 in assay [1] and in assay [2] was 50 to 100% each time.
In the case of `CC(C)c1ccccc1NC(=S)NC(=O)NCCCc1cccc(-c2ncn(-c3ccc(OC(F)(F)F)cc3)n2)c1` [PC120, 1-[(2-isopropylphenyl)carbamothioyl]-3-[3-[3-[1-[4-(trifluoromethoxy)phenyl]-1H-1,2,4-triazol-3-yl]phenyl]propyl]urea], the pest or weed control at 50 µg/cm2 in assay [1] and in assay [2] was 50 to 100% in each case.
Consider `Cc1ccc(C(C)C)c(NC(=S)NC(=O)NCCCc2cccc(-c3ncn(-c4ccc(OC(F)(F)F)cc4)n3)c2)c1` [PC124, 1-[(2-isopropyl-5-methyl-phenyl)carbamothioyl]-3-[3-[3-[1-[4-(trifluoromethoxy)phenyl]-1H-1,2,4-triazol-3-yl]phenyl]propyl]urea], for which the pest or weed control at 50 µg/cm2 in assay [1] and in assay [2] was 50 to 100% in each case.
For `CCCc1ccc(C)cc1NC(=S)NC(=O)NCCCc1cccc(-c2ncn(-c3ccc(OC(F)(F)F)cc3)n2)c1` [PC125, 1-[(5-methyl-2-propyl-phenyl)carbamothioyl]-3-[3-[3-[1-[4-(trifluoromethoxy)phenyl]-1H-1,2,4-triazol-3-yl]phenyl]propyl]urea], the pest or weed control at 50 µg/cm2 in assay [1] and in assay [2] was 50 to 100% in each case.
On to `CCc1cccc(C)c1NC(=S)NC(=O)NCCCc1cccc(-c2ncn(-c3ccc(OC(F)(F)F)cc3)n2)c1` [PC127, 1-[(2-ethyl-6-methyl-phenyl)carbamothioyl]-3-[3-[3-[1-[4-(trifluoromethoxy)phenyl]-1H-1,2,4-triazol-3-yl]phenyl]propyl]urea], for which the pest or weed control at 50 µg/cm2 in assay [1] and in assay [2] was 50 to 100% throughout.
For `Cc1ccc(NC(=S)NC(=O)NCCCc2cccc(-c3ncn(-c4ccc(OC(F)(F)F)cc4)n3)c2)c(C(C)C)c1` [PC128, 1-[(2-isopropyl-4-methyl-phenyl)carbamothioyl]-3-[3-[3-[1-[4-(trifluoromethoxy)phenyl]-1H-1,2,4-triazol-3-yl]phenyl]propyl]urea], the pest or weed control at 50 µg/cm2 in assay [1] and in assay [2] was 50 to 100% throughout.
`CC(C)c1cc(F)ccc1NC(=S)NC(=O)NCCCc1cccc(-c2ncn(-c3ccc(OC(F)(F)F)cc3)n2)c1` [PC129, 1-[(4-fluoro-2-isopropyl-phenyl)carbamothioyl]-3-[3-[3-[1-[4-(trifluoromethoxy)phenyl]-1H-1,2,4-triazol-3-yl]phenyl]propyl]urea]: the pest or weed control at 50 µg/cm2 in assay [1] and in assay [2] was 50 to 100% in each case.
With `COc1ccc(NC(=S)NC(=O)NCCCc2cccc(-c3ncn(-c4ccc(OC(F)(F)F)cc4)n3)c2)c(C)c1` [PC131, 1-[(4-methoxy-2-methyl-phenyl)carbamothioyl]-3-[3-[3-[1-[4-(trifluoromethoxy)phenyl]-1H-1,2,4-triazol-3-yl]phenyl]propyl]urea], the pest or weed control at 50 µg/cm2 in assay [1] and in assay [2] was 50 to 100% each time.
On to `Cc1ccccc1NC(=S)NC(=O)NCCCCc1ccc(-c2ncn(-c3ccc(OC(F)(F)F)cc3)n2)cc1` [PC144, 1-(o-tolylcarbamothioyl)-3-[4-[4-[1-[4-(trifluoromethoxy)phenyl]-1H-1,2,4-triazol-3-yl]phenyl]butyl]urea], for which the pest or weed control at 50 µg/cm2 in assay [1] and in assay [2] was 50 to 100% in each case.
`CCc1ccccc1NC(=S)NC(=O)NCCCCc1ccc(-c2ncn(-c3ccc(OC(F)(F)F)cc3)n2)cc1` [PC145, 1-[(2-ethylphenyl)carbamothioyl]-3-[4-[4-[1-[4-(trifluoromethoxy)phenyl]-1H-1,2,4-triazol-3-yl]phenyl]butyl]urea]: the pest or weed control at 50 µg/cm2 in assay [1] and in assay [2] was 50 to 100% each time.
Take `CC(C)c1ccccc1NC(=S)NC(=O)NCCCCc1ccc(-c2ncn(-c3ccc(OC(F)(F)F)cc3)n2)cc1` [PC146, 1-[(2-isopropylphenyl)carbamothioyl]-3-[4-[4-[1-[4-(trifluoromethoxy)phenyl]-1H-1,2,4-triazol-3-yl]phenyl]butyl]urea]: the pest or weed control at 50 µg/cm2 in assay [1] and in assay [2] was 50 to 100% throughout.
For `Cc1ccc(C(C)C)c(NC(=S)NC(=O)NCCCCc2ccc(-c3ncn(-c4ccc(OC(F)(F)F)cc4)n3)cc2)c1` [PC150, 1-[(2-isopropyl-5-methyl-phenyl)carbamothioyl]-3-[4-[4-[1-[4-(trifluoromethoxy)phenyl]-1H-1,2,4-triazol-3-yl]phenyl]butyl]urea], the pest or weed control at 50 µg/cm2 in assay [1] and in assay [2] was 50 to 100% in each case.
As for `Cc1cccc(C)c1NC(=S)NC(=O)NCCCCc1ccc(-c2ncn(-c3ccc(OC(F)(F)F)cc3)n2)cc1` [PC152, 1-[(2,6-dimethylphenyl)carbamothioyl]-3-[4-[4-[1-[4-(trifluoromethoxy)phenyl]-1H-1,2,4-triazol-3-yl]phenyl]butyl]urea], the pest or weed control at 50 µg/cm2 in assay [1] and in assay [2] was 50 to 100% in each case.
`Cc1ccc(NC(=S)NC(=O)NCCCCc2ccc(-c3ncn(-c4ccc(OC(F)(F)F)cc4)n3)cc2)c(C(C)C)c1` [PC154, 1-[(2-isopropyl-4-methyl-phenyl)carbamothioyl]-3-[4-[4-[1-[4-(trifluoromethoxy)phenyl]-1H-1,2,4-triazol-3-yl]phenyl]butyl]urea]: the pest or weed control at 50 µg/cm2 in assay [1] and in assay [2] was 50 to 100% throughout.
As to `CC(C)c1cc(F)ccc1NC(=S)NC(=O)NCCCCc1ccc(-c2ncn(-c3ccc(OC(F)(F)F)cc3)n2)cc1` [PC155, 1-[(4-fluoro-2-isopropyl-phenyl)carbamothioyl]-3-[4-[4-[1-[4-(trifluoromethoxy)phenyl]-1H-1,2,4-triazol-3-yl]phenyl]butyl]urea], the pest or weed control at 50 µg/cm2 in assay [1] and in assay [2] was 50 to 100% in each case.
`COc1ccc(C(C)C)c(NC(=S)NC(=O)NCCCCc2ccc(-c3ncn(-c4ccc(OC(F)(F)F)cc4)n3)cc2)c1` [PC156]: the pest or weed control at 50 µg/cm2 in assay [1] and in assay [2] was 50 to 100% throughout.
Take `Cc1ccc(C(C)C)c(NC(=S)NC(=O)NCCCCc2ccc(-c3ncn(-c4ccc(C(F)(F)F)cc4)n3)cc2)c1` [PC159, 1-[(2-isopropyl-5-methyl-phenyl)carbamothioyl]-3-[4-[4-[1-[4-(trifluoromethyl)phenyl]-1H-1,2,4-triazol-3-yl]phenyl]butyl]urea]: the pest or weed control at 50 µg/cm2 in assay [1] and in assay [2] was 50 to 100% throughout.
`Cc1ccc(C(C)C)c(NC(=S)NC(=O)NCCC#Cc2ccc(-c3ncn(-c4ccc(OC(F)(F)F)cc4)n3)cc2)c1` [PC160, 1-[(2-isopropyl-5-methyl-phenyl)carbamothioyl]-3-[4-[4-[1-[4-(trifluoromethoxy)phenyl]-1H-1,2,4-triazol-3-yl]phenyl]but-3-ynyl]urea]: the pest or weed control at 50 µg/cm2 in assay [1] and in assay [2] was 50 to 100% in each case.
